# Experimental data: ChEMBL document CHEMBL5143523, “Construction and activity evaluation of novel benzodioxane derivatives as dual-target antifungal inhibitors” (Eur J Med Chem, 2022)
# pIC50: −log10 of the molar value. The source made the active and inactive calls. The calls are words filed in the database; no cut-off is given here.
# Key:
# [1] = Toxicity in mouse infected with Candida albicans ATCC SC5314 assessed as pathological changes in heart at 4 mg/kg, ip administered ever other day for 12 days by hematoxylin and eosin staining based histopathological analysis; type: organism-based; settings: in vivo, 288 h, time 12 day
# Candida albicans [2] = assay: Antifungal activity against fluconazole resistant Candida albicans strain 17# assessed as fungal growth inhibition measured after 72 hrs by CLSI protocol based liquid medium dilution method; type: functional
# Squalene epoxidase ERG1 = molecular target: T1, Squalene epoxidase ERG1 (Candida albicans, UniProt Q92206); assay: Inhibition of SE in Candida albicans ATCC SC5314 incubated for 30 mins using squalene as substrate in presence of NADPH by spectrophotometer analysis
# T1 sequence (Q92206 whole entry): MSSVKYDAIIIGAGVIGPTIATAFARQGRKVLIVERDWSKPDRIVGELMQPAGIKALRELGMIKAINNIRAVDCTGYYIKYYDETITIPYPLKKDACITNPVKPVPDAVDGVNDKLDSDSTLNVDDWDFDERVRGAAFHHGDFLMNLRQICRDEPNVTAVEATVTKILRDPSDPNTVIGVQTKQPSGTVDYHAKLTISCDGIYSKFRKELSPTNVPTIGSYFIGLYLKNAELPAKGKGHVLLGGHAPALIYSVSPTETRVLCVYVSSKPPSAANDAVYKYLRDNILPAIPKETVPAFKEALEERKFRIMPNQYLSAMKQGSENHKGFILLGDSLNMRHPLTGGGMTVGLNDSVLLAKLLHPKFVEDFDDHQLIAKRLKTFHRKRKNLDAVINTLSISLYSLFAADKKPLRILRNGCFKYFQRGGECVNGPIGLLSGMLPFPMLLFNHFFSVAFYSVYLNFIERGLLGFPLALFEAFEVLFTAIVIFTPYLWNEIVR
# Candida albicans [3] = assay: Induction of apoptosis in Candida albicans ATCC SC5314 cells assessed as early apoptotic cells at 8 ug/ml incubated for 72 hrs by Annexin V-FITC/PI staining based flow cytometry method (reference value: 0.56%); type: functional; settings: dose 8 µg/ml
# Nakaseomyces glabratus = assay: Antifungal activity against Candida glabrata ATCC 0001 assessed as fungal growth inhibition measured after 72 hrs by CLSI protocol based liquid medium dilution method; type: functional
# Candida albicans [4] = assay: Antifungal activity against Candida albicans ATCC SC5314 assessed as change in unknown sterol level at 4 ug/ml incubated for 48 hrs by LC-MS analysis (reference value: 4.3%); type: functional; settings: dose 4 µg/ml
# Pichia kudriavzevii = assay: Antifungal activity against Candida krusei ATCC 6258 assessed as fungal growth inhibition measured after 72 hrs by CLSI protocol based liquid medium dilution method; type: functional
# [5] = Toxicity in mouse infected with Candida albicans ATCC SC5314 assessed as pathological changes in spleen at 4 mg/kg, ip administered ever other day for 12 days by hematoxylin and eosin staining based histopathological analysis; type: organism-based; settings: in vivo, 288 h, time 12 day
# Candida albicans [6] = assay: Induction of apoptosis in Candida albicans ATCC SC5314 cells assessed as late apoptotic cells at 8 ug/ml incubated for 72 hrs by Annexin V-FITC/PI staining based flow cytometry method (reference value: 0.12%); type: functional; settings: dose 8 µg/ml
# Candida albicans [7] = assay: Antifungal activity against Candida albicans ATCC SC5314 assessed as change in lanosterol level at 4 ug/ml incubated for 48 hrs by LC-MS analysis (reference value: 3.7%); type: functional; settings: dose 4 µg/ml
# Candida albicans [8] = assay: Antifungal activity against Candida albicans ATCC SC5314 assessed as decrease in ergosterol content at 4 ug/ml incubated for 48 hrs by LC-MS analysis (reference value: 90.6%); type: functional; parameters: scale not given: the % may be the effect or the level left; settings: dose 4 µg/ml
# Mus musculus [9] = assay: In vivo antifungal activity against Candida albicans ATCC SC5314 infected mouse model assessed as reduction in nuclear aggregation at 4 mg/kg, ip administered ever other day for 12 days by hematoxyin-eosin staining based microscopic analysis; type: functional, organism-based; settings: time 12.0 day
# Mus musculus [10] = assay: In vivo antifungal activity against Candida albicans ATCC SC5314 infected mouse assessed as reduction in fungal infection region at 4 mg/kg, ip administered ever other day for 12 days; type: functional, organism-based; settings: time 12.0 day
# [11] = molecular target: Lanosterol 14-alpha demethylase (Candida albicans (strain SC5314 / ATCC MYA-2876) (Yeast), UniProt P10613); assay: Inhibition of CYP51 in Candida albicans ATCC SC5314 incubated for 30 mins using eburicol as substrate in presence of NADPH by HPLC analysis
# Mus musculus [12] = assay: In vivo antifungal activity against Candida albicans ATCC SC5314 infected mouse assessed as increase in body weight at 4 mg/kg, ip administered ever other day for 12 days; type: functional, organism-based; settings: time 12.0 day
# Mus musculus [13] = assay: In vivo antifungal activity against Candida albicans ATCC SC5314 infected mouse model assessed as regular arrangement of intercellular space at 4 mg/kg, ip administered ever other day for 12 days by hematoxyin-eosin staining based microscopic analysis; type: functional, organism-based; settings: time 12.0 day
# Candida albicans [14] = assay: Antifungal activity against fluconazole resistant Candida albicans strain 901 assessed as decrease in fungal cell density at 4 ug/ml by fluorescence microscopy; type: functional, organism-based; settings: dose 4.0 µg/ml
# Mus musculus [15] = assay: In vivo antifungal activity against Candida albicans ATCC SC5314 infected mouse model assessed as disappearance of pathogenic fungi at 4 mg/kg, ip administered ever other day for 12 days by hematoxyin-eosin staining based microscopic analysis; type: functional, organism-based; settings: time 12.0 day
# Candida albicans [16] = assay: Antifungal activity against fluconazole resistant Candida albicans strain 103 assessed as fungal growth inhibition measured after 72 hrs by CLSI protocol based liquid medium dilution method; type: functional
# Candida albicans [17] = assay: Antifungal activity against Candida albicans ATCC 10231 assessed as fungal growth inhibition measured after 72 hrs by CLSI protocol based liquid medium dilution method; type: functional
# Candida albicans [18] = assay: Antifungal activity against fluconazole resistant Candida albicans strain CaR assessed as fungal growth inhibition measured after 72 hrs by CLSI protocol based liquid medium dilution method; type: functional
# Candida tropicalis = assay: Antifungal activity against Candida tropicalis ATCC 1369 assessed as fungal growth inhibition measured after 72 hrs by CLSI protocol based liquid medium dilution method; type: functional
# Candida albicans [19] = assay: Antifungal activity against Candida albicans ATCC SC5314 assessed as change in squalene level at 4 ug/ml incubated for 48 hrs by LC-MS analysis; type: functional; settings: dose 4 µg/ml
# Candida albicans [20] = assay: Induction of apoptosis in Candida albicans ATCC SC5314 cells assessed as live cells at 8 ug/ml incubated for 72 hrs by Annexin V-FITC/PI staining based flow cytometry method (reference value: 95.56%); type: functional; settings: dose 8 µg/ml
# [21] = Drug uptake in fluconazole resistant Candida albicans strain 901 at 4 ug/ml by fluorescence microscopy; type: ADME; settings: dose 4 µg/ml
# [22] = Hepatotoxicity in mouse infected with Candida albicans ATCC SC5314 assessed as change in plasma ALT level at 4 mg/kg, ip administered ever other day for 12 days; type: toxicity, organism-based; settings: in vivo, 288 h, time 12 day
# Candida albicans [23] = assay: Antifungal activity against Candida albicans ATCC SC5314 assessed as change in eburicol level at 4 ug/ml incubated for 48 hrs by LC-MS analysis (reference value: 1.4%); type: functional; settings: dose 4 µg/ml
# [24] = Nephrotoxicity in mouse infected with Candida albicans ATCC SC5314 assessed as change in plasma BUN level at 4 mg/kg, ip administered ever other day for 12 days; type: toxicity, organism-based; settings: in vivo, 288 h, time 12 day
# Mus musculus [25] = assay: In vivo antifungal activity against Candida albicans ATCC SC5314 infected mouse assessed as regular arrangement of endothelial tissue at 4 mg/kg, ip administered ever other day for 12 days by hematoxyin-eosin staining based microscopic analysis; type: functional, organism-based; settings: time 12.0 day
# Aspergillus fumigatus = assay: Antifungal activity against Aspergillus fumigatus KM8001 assessed as fungal growth inhibition measured after 72 hrs by CLSI protocol based liquid medium dilution method; type: functional
# [26] = Hepatotoxicity in mouse infected with Candida albicans ATCC SC5314 assessed as change in plasma AST level at 4 mg/kg, ip administered ever other day for 12 days; type: toxicity, organism-based; settings: in vivo, 288 h, time 12 day
# [27] = Toxicity in mouse infected with Candida albicans ATCC SC5314 assessed as pathological changes in kidney at 4 mg/kg, ip administered ever other day for 12 days by hematoxylin and eosin staining based histopathological analysis; type: organism-based; settings: in vivo, 288 h, time 12 day
# [28] = Toxicity in mouse infected with Candida albicans ATCC SC5314 assessed as pathological changes in liver at 4 mg/kg, ip administered ever other day for 12 days by hematoxylin and eosin staining based histopathological analysis; type: organism-based; settings: in vivo, 288 h, time 12 day
# [29] = Toxicity in mouse infected with Candida albicans ATCC SC5314 assessed as pathological changes in lung at 4 mg/kg, ip administered ever other day for 12 days by hematoxylin and eosin staining based histopathological analysis; type: organism-based; settings: in vivo, 288 h, time 12 day
# Candida albicans [30] = assay: Antifungal activity against fluconazole resistant Candida albicans strain 901 assessed as fungal growth inhibition measured after 72 hrs by CLSI protocol based liquid medium dilution method; type: functional
# Candida albicans [31] = assay: Antifungal activity against fluconazole resistant Candida albicans strain 904 assessed as fungal growth inhibition measured after 72 hrs by CLSI protocol based liquid medium dilution method; type: functional
# Candida albicans [32] = assay: Induction of apoptosis in Candida albicans ATCC SC5314 cells assessed as necrotic cells at 8 ug/ml incubated for 72 hrs by Annexin V-FITC/PI staining based flow cytometry method (reference value: 3.76%); type: functional; settings: dose 8 µg/ml
# Candida albicans [33] = assay: Antifungal activity against fluconazole resistant Candida albicans strain 901 assessed as fungal growth inhibition measured after 72 hrs in presence of naftifine by CLSI protocol based liquid medium dilution method; type: functional
# Candida albicans [34] = assay: Antifungal activity against fluconazole resistant Candida albicans strain 103 assessed as fungal growth inhibition measured after 72 hrs in presence of naftifine by CLSI protocol based liquid medium dilution method; type: functional
# Candida albicans [35] = assay: Antifungal activity against fluconazole resistant Candida albicans strain 904 assessed as fungal growth inhibition measured after 72 hrs in presence of naftifine by CLSI protocol based liquid medium dilution method; type: functional
# Candida albicans [36] = assay: Antifungal activity against fluconazole resistant Candida albicans strain 17# assessed as fungal growth inhibition measured after 72 hrs in presence of naftifine by CLSI protocol based liquid medium dilution method; type: functional
# Candida albicans [37] = assay: Antifungal activity against fluconazole resistant Candida albicans strain CaR assessed as fungal growth inhibition measured after 72 hrs in presence of naftifine by CLSI protocol based liquid medium dilution method; type: functional
# Candida albicans [38] = assay: Antifungal activity against fluconazole resistant Candida albicans strain 901 assessed as decrease in fungal cell density in presence naftifine of by fluorescence microscopy; type: functional, organism-based
# [39] = Drug uptake in fluconazole resistant Candida albicans strain 901 in presence of naftifine by fluorescence microscopy; type: ADME
# Lanosterol 14-alpha demethylase, sequence (P10613 whole entry): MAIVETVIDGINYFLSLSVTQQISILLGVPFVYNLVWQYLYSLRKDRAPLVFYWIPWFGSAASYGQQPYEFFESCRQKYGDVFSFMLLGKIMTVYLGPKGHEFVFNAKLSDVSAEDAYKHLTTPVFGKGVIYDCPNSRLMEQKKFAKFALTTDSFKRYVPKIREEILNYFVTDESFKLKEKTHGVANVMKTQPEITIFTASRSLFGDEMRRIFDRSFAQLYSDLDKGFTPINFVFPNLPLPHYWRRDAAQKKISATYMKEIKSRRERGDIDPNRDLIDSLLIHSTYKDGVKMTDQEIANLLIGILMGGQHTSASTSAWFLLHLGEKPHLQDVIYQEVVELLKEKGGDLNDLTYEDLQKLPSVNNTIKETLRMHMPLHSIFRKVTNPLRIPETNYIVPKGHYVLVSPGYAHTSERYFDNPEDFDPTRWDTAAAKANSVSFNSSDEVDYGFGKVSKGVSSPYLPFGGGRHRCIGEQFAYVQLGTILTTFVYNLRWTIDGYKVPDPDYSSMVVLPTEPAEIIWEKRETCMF
smiles,measurement,setting,value
O=C(N[C@H](Cc1ccccc1)Cn1cncn1)c1ccc2c(c1)OCCO2,Activity,[1],Non-Toxic
same,MIC50,Candida albicans [2],2 µg/mL
same,pIC50,Squalene epoxidase ERG1,6.08
same,Activity,Candida albicans [3],0.38%
same,MIC50,Nakaseomyces glabratus,0.25 µg/mL
same,Activity,Candida albicans [4],6.2%
same,MIC50,Pichia kudriavzevii,0.125 µg/mL
same,Activity,[5],Non-Toxic
same,Activity,Candida albicans [6],1.62%
same,Activity,Candida albicans [7],18.5%
same,Activity,Candida albicans [8],24.7%
same,Activity,Mus musculus [9],Active
same,Activity,Mus musculus [10],Active
same,pIC50,[11],6.45
same,Activity,Mus musculus [12],Active
same,Activity,Mus musculus [13],Active
same,Activity,Candida albicans [14],Active
same,Activity,Mus musculus [15],Active
same,MIC50,Candida albicans [16],1 µg/mL
same,MIC50,Candida albicans [17],0.25 µg/mL
same,MIC50,Candida albicans [18],1 µg/mL
same,MIC50,Candida tropicalis,0.125 µg/mL
same,Activity,Candida albicans [19],15.3%
same,Activity,Candida albicans [20],52.17%
same,Drug uptake,[21],Active
same,Activity,[22],54.6 IU/L
same,Activity,Candida albicans [23],35.3%
same,Activity,[24],13.1 mmol/L
same,Activity,Mus musculus [25],Active
same,MIC50,Aspergillus fumigatus,2 µg/mL
same,Activity,[26],83 IU/L
same,Activity,[27],Non-Toxic
same,Activity,[28],Non-Toxic
same,Activity,[29],Non-Toxic
same,MIC50,Candida albicans [30],1 µg/mL
same,MIC50,Candida albicans [31],2 µg/mL
same,Activity,Candida albicans [32],45.83%
Clc1ccc(COC(Cn2ccnc2)c2ccc(Cl)cc2Cl)c(Cl)c1 (centres undefined) [MICONAZOLE],MIC50,Candida albicans [33],2 µg/mL
same,MIC50,Candida albicans [34],2 µg/mL
same,MIC50,Candida albicans [35],1 µg/mL
same,MIC50,Candida albicans [36],1 µg/mL
same,MIC50,Candida albicans [37],1 µg/mL
same,Activity,Candida albicans [38],Active
same,Drug uptake,[39],Active
